In one experiment the test system is human neutrophils. The experiment in a line: Disinfection activity of human neutrophils against opsonized E. coli. In kind it is cell-based. As to conditions: FIG. 27. The source says:
(§1) All kinds of protocols used in human beings were approved by the Institutional Review Board (IRB) at Dong-A University Hospital, and prior consents were obtained from all blood donors. Peripheral blood was collected from healthy donors, and human peripheral monocytes were separated using a Histopaque-1077 gradient. Neutrophils were separated through methods such as dextran precipitation of red blood cell, hypotonic lysis, and usage of lymphocyte isolation medium gradient, as known in the related art (Bae, Y. S. et al. Blood 97, 2854-2862(2001)). The separated human leukocytes were used immediately.
The disinfection activities of the neutrophils were measured according to a method disclosed by Yan et al. (Yan J J et al. 2004 Nat. Med. 10:161-167). The neutrophils were stationarily incubated at 37° C. for an hour on a 13 mm plastic cover slip in a 60 mm plastic culture dish. The non-attached cells were removed by PBS. The attached neutrophils were stationarily incubated for an hour with 10^6 opsonized E. coli cells. The non-phagocytized E. coli cells were washed, and the number of bacteria surviving in the neutrophils was determined before and after the E. coli cells were treated with various concentrations of Ac-PGP or vehicle for an hour. A percentage of the apoptosized bacteria was calculated as follows. 100×(1−CFU Number after stimulus with Ac-PGP/CFU Number before stimulus with Ac-PGP)
Since Ac-PGP strongly promoted the disinfection activity of the mouse neutrophils, a bacteriocidal effect of the Ac-PGP on human neutrophils was examined.

The subject of experiment [1] is mice into which LPS was intraperitoneally injected. The experiment in a line: Survival in LPS-induced sepsis model. The format is in vivo, mouse. The conditions noted are these: 60 mg/kg LPS intraperitoneally; FIG. 4. As for the experimental part: Male WT ICR mice were used to evaluate a therapeutic effect of Ac-PGP. IFN-γ-deficient mice (kindly provided by Y. K. Kim at the Pohang University of Science and Technology, Pohang, Republic of Korea) were used for mechanism study. All Examples in which animals were used were performed according to the instructions with permission of the Institutional Review Board (IRB) for the care and management of laboratory animals at Dong-A University. In the case of the CLP, mice were anesthetized with pentothal sodium (50 mg/kg, intraperitoneally injected), and abdomen of each mouse was cut along a central cutting line to expose an appendix. Then, an ileocecal valve of the appendix was tied up, both surfaces of the ileocecal valve were punctured twice with a 22-gauge needle (or punctured once to measure a production amount of cytokines), and the abdomen was sutured. Sham CLP mice were treated in the same manner as described above, except that CLP of the appendix was not performed. A survival rate of the mice was monitored every day for 10 days. In the case of the LPS or E. coli model, E. coli and LPS were intraperitoneally injected at concentrations of 1×10^9 cells/mouse and 60 mg/kg, respectively. A survival rate of the mice was monitored once a day for 10 days.
In another mouse model of sepsis, a therapeutic effect of Ac-PGP was also evaluated.

In another experiment the test system is PBMCs. The experiment in a line: Cytokine production by LPS-stimulated human PBMCs. As to conditions: human PBMCs stimulated with LPS. In kind it is cell-based.
Description: as §1
Next, an effect of the Ac-PGP on production of cytokines by human neutrophils and PBMCs was examined. […] A human CXCR2 chemokine agonist CXCL8 had few effects on production of TNF-α or IFN-γ stimulated with LPS (FIG. 28 to FIG. 31). Therefore, the Ac-PGP could improve both antiseptic activities in leukocytes derived from human beings and mice.

A further experiment relates to caspase-3. The experiment in a line: Caspase-3 activation in splenocytes of CLP mice (immunohistochemistry). The format is in vivo, mouse. As to conditions: FIG. 23. On the procedure:
First, a tissue embedded in paraffin was deparaffinized using a typical histological protocol, and performed digoxigenin-dUTP nick end labeling (TUNEL) analysis. Sections were permeated into the Triton X-100 at 4° C. for 2 minutes, and the sections were flooded in terminal deoxynucleotidyl transferase (TdT) and a TUNEL reagent at 37° C. for 60 minutes. A percentage of apoptotic cells (TUNEL-positive cells) was determined by counting 500 splenocytes under an optical microscope. Also, the tissue embedded in paraffin was deparaffinized using a typical histological protocol, and immunohistochemical analysis was performed on the microtomed sections of caspase-3 (Wang J. et al. 2001 Proc. Natl. Acad. Sci. USA 98:4038-43).
The apoptosis of immune cells is associated with the mortality on sepsis. Here, the CLP was proven to remarkably increase apoptosis of splenocytes (FIG. 22). […] Apoptosis of lymphocytes was induced by activation of some major caspases including caspase-3. Therefore, not only the effect of Ac-PGP on activation of caspase-3 but also the effect of CLP activation by caspase-3 were examined (FIG. 23).

A further experiment has as its system CLP mice. The experiment in a line: Histological analysis (hematoxylin and eosin) of major internal organs of CLP mice. The conditions noted are these: FIG. 7. In kind it is in vivo, mouse. On the procedure: A mouse was subjected to CLP surgery, and after 2 hours, PBS or Ac-PGP was injected at a dose of 17.5 mg/kg to the mouse. After the CLP surgery, the mouse was sacrificed within 24 hours, and the lung of the mouse was fixed, microtomed, and stained with hematoxylin and eosin so as to perform morphological analysis.
The defunctionalization of the major internal organs such as lungs was associated with the mortality after sepsis. A morphological change was observed by performing hematoxylin and eosin staining. […] Liver tissues from the CLP mice were necrotized to a higher extent, but the necrosis of the liver tissues was decreased by administration of Ac-PGP. […] Most of the apoptosis in the thymus or spleen of a CLP mouse was caused in the cortex of the thymus or spleen in which immature cells were populated. When compared with those of the sham or Ac-PGP mice, an important morphological change in apoptotic cells of the CLP mice is that small compact pyknosis containing multiple nuclear fragments were present in apoptotic lymphocytes (FIG. 7). […] The apoptosis of immune cells was also accompanied with sepsis.

For acetylated-Pro-Gly-Pro [Ac-PGP], in the experiment on human neutrophils (20 nM), the “killing of opsonified E. coli” value is “almost completely killed opsonified E. coli”. In the experiment with human neutrophils (100 nM), the disinfection activity entry is “remarkably improved the disinfection activity”. Further, the “bacterial killing by the human neutrophils” value with human neutrophils (various concentrations) is listed as “dose-dependent effect on bacterial killing”. In addition, in experiment [1], the mortality entry is listed as “decreased mortality”. Further, the “production of TNF-α” value in the experiment on PBMCs (FIG. 29) is listed as “remarkably suppressed”. Also, the “production of IFN-γ” value in the experiment with PBMCs (FIG. 31) is reported as “remarkably improved”. Moreover, the “activation of caspase-3” value with caspase-3 is on record as “remarkably suppressed”. Besides, the “necrosis of the liver tissues” value in the experiment with CLP mice (17.5 mg/kg 2 hours after CLP) was “decreased”. In the experiment with CLP mice, the “formation of alveolar congestion and thrombotic lesions in the lungs” value is on record as “remarkably suppressed”.

Values taken from US8937038B2, “Composition containing peptide ligand that bonds with CXCR2 for treating infective and inflammatory diseases” (priority 2010, dated 2015).
